Experimental data from ChEMBL document CHEMBL5356964, “Design, synthesis and anti-rheumatoid arthritis activity of target TLR4 inhibitors” (Bioorg Med Chem, 2024).

Key:
RAW264.7 [1] = experiment: Antiproliferative activity against LPS-induced- mouse RAW264.7 cells assessed as inhibition of cell growth incubated for 24 hrs by CCK-8 assay; assay type: functional, cell-based; settings: RAW264.7, 24 h
[2] = Antiproliferative activity against rat Synovial cell assessed as inhibition of cell growth incubated for 48 hrs by CCK-8 assay; assay type: functional, cell-based
RAW264.7 [3] = experiment: Antiarthritic activity against LPS-induced mouse RAW264.7 cells assessed as reduction in TNF-alpha level at 1 uM incubated for 24 hrs (Rvb 653.3 +/- 70.1 pg/L); assay type: functional
Toll-like receptor 4 = Toll-like receptor 4 (Homo sapiens, UniProt O00206); experiment: Inhibition of TLR4 (unknown origin) using TMB as substrate incubated for 90 mins
RAW264.7 [4] = experiment: Antiarthritic activity against LPS-induced mouse RAW264.7 cells assessed as reduction in IL-6 level at 1 uM incubated for 24 hrs (Rvb 231.1 +/- 24.2 pg/L); assay type: functional
RAW264.7 [5] = experiment: Antiarthritic activity against LPS-induced mouse RAW264.7 cells assessed as reduction in IL-1beta level at 1 uM incubated for 24 hrs (Rvb 665.1 +/- 82.1 pg/L); assay type: functional

Chain of Toll-like receptor 4 (O00206 whole entry): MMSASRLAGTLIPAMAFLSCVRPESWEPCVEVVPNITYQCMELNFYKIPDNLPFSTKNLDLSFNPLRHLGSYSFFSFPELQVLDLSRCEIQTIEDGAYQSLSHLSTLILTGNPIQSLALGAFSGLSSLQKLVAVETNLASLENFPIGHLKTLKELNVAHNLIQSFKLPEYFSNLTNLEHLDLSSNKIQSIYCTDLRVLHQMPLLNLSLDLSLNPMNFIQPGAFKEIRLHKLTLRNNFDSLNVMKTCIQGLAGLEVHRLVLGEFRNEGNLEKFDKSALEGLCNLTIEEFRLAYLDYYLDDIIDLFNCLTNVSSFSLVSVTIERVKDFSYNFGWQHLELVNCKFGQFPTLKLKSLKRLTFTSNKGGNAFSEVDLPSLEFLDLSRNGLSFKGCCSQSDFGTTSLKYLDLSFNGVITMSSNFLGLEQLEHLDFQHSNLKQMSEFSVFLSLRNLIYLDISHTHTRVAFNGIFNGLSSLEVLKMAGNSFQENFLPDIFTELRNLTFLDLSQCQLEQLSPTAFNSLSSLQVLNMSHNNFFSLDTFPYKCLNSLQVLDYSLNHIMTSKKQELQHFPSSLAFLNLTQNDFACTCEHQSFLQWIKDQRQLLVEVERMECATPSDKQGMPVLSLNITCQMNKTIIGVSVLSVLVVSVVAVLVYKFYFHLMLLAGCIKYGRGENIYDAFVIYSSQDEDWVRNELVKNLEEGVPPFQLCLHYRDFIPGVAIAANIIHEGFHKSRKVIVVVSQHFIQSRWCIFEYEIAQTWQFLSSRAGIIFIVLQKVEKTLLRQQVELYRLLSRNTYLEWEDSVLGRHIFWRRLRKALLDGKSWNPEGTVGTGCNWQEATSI

Row | IC50 (Toll-like receptor 4) [µM] | Compound | IC50 (RAW264.7 [1]) [µM] | IC50 [2] [µM] | Activity (RAW264.7 [3]) [pg/L] | Activity (RAW264.7 [4]) [pg/L] | Activity (RAW264.7 [5]) [pg/L]
1 |  | CC(=O)CC(=O)C1CC(c2ccccc2)CCC1=O (stereo not given) | 2.18 | 3.95 |  |  | 
2 |  | CC(=O)CC(=O)C1CC(=O)CCC1=O (stereo not given) | 3.63 | 6.51 |  |  | 
3 | 1.12 | CC(=O)CC(=O)C1CC(Cl)CCC1=O (stereo not given) | 1.32 | 2.45 | 350.2 | 133.5 | 385.1
4 |  | CC(=O)CC(=O)C1CC(NC(=O)OCc2ccccc2)CCC1=O (stereo not given) | 2.35 | 4.25 |  |  | 
5 | 1.86 | CCCCC1CCC(=O)C(C(=O)CC(C)=O)C1 (stereo not given) | 1.56 | 2.72 | 401.6 | 187.4 | 481.6
6 |  | CC(=O)CC(=O)C1CC(C2CCC3(CC2)OCCO3)CCC1=O (stereo not given) | 2.51 | 5.22 |  |  | 
7 |  | CC(=O)CC(=O)C1CC(c2ccc(O)cc2)CCC1=O (stereo not given) | 3.21 | 7.94 |  |  | 
8 | 1.03 | CC(=O)CC(=O)C1CC(N)CCC1=O (stereo not given) | 1.2 | 2.15 | 332.9 | 136.9 | 367.3
9 |  | CCOC(=O)C1CCC(=O)C(C(=O)CC(C)=O)C1 (stereo not given) | 2.63 | 5.44 |  |  | 
10 |  | CCC1CCC(=O)C(C(=O)CC(C)=O)C1 (stereo not given) | 2.68 | 5.31 |  |  | 
11 | 1.78 | CCCC1CCC(C2CCC(=O)C(C(=O)CC(C)=O)C2)CC1 (stereo not given) | 1.71 | 3.51 | 478.96 | 180.7 | 545.9
12 |  | CC(=O)CC(=O)C1CC(C(=O)O)CCC1=O (stereo not given) | 2.71 | 5.31 |  |  | 
